Measurements reported in patent US6281342A, “Pradimicin compounds” (Bristol-Myers Squibb Company, priority 1994, dated 2001).
Values after ≈ are worked out from the molar mass of the structure shown. Read-outs that look alike come from different tables or passages of the source.

What was measured:
[1] = tested on: Cryptococcus neoformans IAM 4514; assay: MIC, two-fold agar dilution, C. neoformans IAM 4514; assay type: cell-based; details: IAM4514
Experimental: (§1) Minimum inhibitory concentrations (MICs) of nine 4'-N-substituted pradimicin derivatives were determined by two-fold agar dilution method on phosphate-buffered yeast morphology agar (YMA, pH 7.0, Difco Laboratories). A 5-μl of fungal cell suspension containing 2×10^6 cells/ml (2×10^7 cells/ml for Trichophyton mentagrophytes) were spotted on the surface of the agar plates containing test compound. MICs were recorded after 40-hour incubation at 28° C. except for T. mentagrophytes, which required 60-hour incubation to produce visually evaluable growth on the drug-free control plates and were defined as the lowest antibiotic concentrations showing no growth or less than five discrete colonies per spot.
(§2) Medium: yeast morphology agar + 1/15 M phosphate buffer (pH 7.0)
(§3) Incubation conditions: 28° C., 40 hours (C. albicans ATCC 38247 & T.
(§4) Medium: Yeast morphology agar + 1/15 phosphate buffer (pH 7.0).

[2] = tested on: Aspergillus fumigatus IAM 2034; assay: MIC, two-fold agar dilution, A. fumigatus IAM 2034; assay type: cell-based; details: IAM2034
Experimental: as §1, §2, §3, §4

[3] = tested on: Aspergillus fumigatus IAM 2034; assay: Therapeutic efficacy in Aspergillus fumigatus systemic infection in mice; assay type: in vivo, male ICR mice infected with Aspergillus fumigatus IAM 2034; details: IAM2034, 480 h; for responders at 6.3 mg/kg: 6.3 mg/kg iv; for responders at 6.3 mg/kg / responders at 12.5 mg/kg / responders at 25 mg/kg / responders at 50 mg/kg: 20th day post-infection, read-out: S/T (No. of survivors/tested) (converted); for responders at 12.5 mg/kg: 12.5 mg/kg iv; for responders at 25 mg/kg: 25 mg/kg iv; for responders at 50 mg/kg: 50 mg/kg iv
Experimental: (§5) The in vivo therapeutic efficacies of seven 4'-N-substituted pradimicin derivatives, KHM-1, KHM-2, KHM-3, KHM-4, KHM-5, KHM-6 and KHM-7 were evaluated in the mouse infected with Candida albicans A9540 and Aspergillus fumigatusIAM 2034. Groups of five specific-pathogen-free male ICR mice weighing 20-25 g at each dose level were intravenously infected with approximately 10 times the 50% lethal dose of C. albicans A9540 (1×10^6 cells/mouse) or A. fumigatus IAM 2034 (1×10^7 cells/mouse). Immediately after the fungal infection, test compounds dissolved with 10% DMSO in distilled water were intravenously given to the mouse at the dosed volume of 0.1 ml/10 g of body weight. […] Untreated control animals died 7 to 13 days post-infection.

[4] = tested on: Candida albicans 83-2-14; assay: MIC, two-fold agar dilution, C. albicans 83-2-14; assay type: cell-based; details: 83214, YMA pH 7.0, 28° C., 40 hours
Experimental: as §1, §2, §3, §4

[5] = tested on: Candida albicans A9540; assay: animal or person; assay type: in vivo, male ICR mice infected with Candida albicans A9540; details: Candida albicans; for ED50: Table 2, 95% confidence limits in parentheses, read-out: PD50 (50% protection dose)
Experimental: as §5

[6] = tested on: Candida albicans ATCC 32354; assay: MIC, two-fold agar dilution, C. albicans ATCC 32354; assay type: cell-based; details: ATCC32354, YMA pH 7.0, 28° C., 40 hours
Experimental: as §1, §2, §3, §4

[7] = tested on: Cryptococcus neoformans D49; assay: MIC, two-fold agar dilution, C. neoformans D49; assay type: cell-based; details: YMA pH 7.0, 28° C., 40 hours
Experimental: as §1, §2, §3, §4

[8] = tested on: Candida tropicalis 85-8; assay: MIC, two-fold agar dilution, C. tropicalis 85-8; assay type: cell-based; details: 858, YMA pH 7.0, 28° C., 40 hours
Experimental: as §1, §2, §3, §4

[9] = tested on: Candida tropicalis IFO 10241; assay: MIC, two-fold agar dilution, C. tropicalis IFO 10241; assay type: cell-based; details: IFO10241, YMA pH 7.0, 28° C., 40 hours
Experimental: as §1, §2, §3, §4

[10] = tested on: Candida albicans IAM 4888; assay: MIC, two-fold agar dilution, C. albicans IAM 4888; assay type: cell-based; details: IAM4888, YMA pH 7.0, 28° C., 40 hours
Experimental: as §1, §2, §3, §4

[11] = tested on: Candida albicans A9540; assay: MIC, two-fold agar dilution, C. albicans A9540; assay type: cell-based
Experimental: as §1, §2, §3, §4

[12] = tested on: Saccharomyces cerevisiae ATCC 9763; assay: MIC, two-fold agar dilution, S. cerevisiae ATCC 9763; assay type: cell-based; details: ATCC9763, YMA pH 7.0, 28° C., 40 hours
Experimental: as §1, §2, §3, §4

[13] = tested on: Candida albicans ATCC 38247; assay: MIC, two-fold agar dilution, C. albicans ATCC 38247; assay type: cell-based; details: ATCC38247, YMA pH 7.0, 28° C., 60 hours (table footnote)
Experimental: as §1, §2, §3
(§6) mentagrophytes #4329: 28° C., 60 hours).
as §4

[14] = Water solubility at neutral pH in PBS containing Ca^2+/Mg^2+; assay type: physicochemical; details: pbs with ca2+/mg2+; Table 3; water-solubility at neutral pH in phosphate buffered saline containing Ca^2+/Mg^2+
Experimental: The compounds of the invention have good water solubility. Typically, the water solubility is greater than 10 mg/ml when measured at neutral pH in PBS containing Ca^2+ /Mg^2+, preferably greater than 20 mg/ml.
^2) Water-solubility at neutral pH in phosphate buffered saline
containing Ca^2+ /Mg^2+.

[15] = tested on: Trichophyton mentagrophytes #4329; assay: MIC, two-fold agar dilution, T. mentagrophytes #4329; assay type: cell-based
Experimental: as §1, §2, §3, §6, §4

[16] = Cryptococcus neoformans IAM 4514, YMA pH 7.0, 28° C., 40 hours, read-out: MIC
[17] = Table 3, Cryptococcus neoformans IAM 4514, YMA, read-out: MIC Cn-2
[18] = Aspergillus fumigatus IAM 2034, YMA pH 7.0, 28° C., 40 hours, read-out: MIC
[19] = Table 3, Aspergillus fumigatus IAM 2034, YMA, read-out: MIC Af-3
[20] = Aspergillus fumigatus, A. fumigatus, mice
[21] = Aspergillus fumigatus, Table 2, A. fumigatus, mice, iv, 95% confidence limits in parentheses, read-out: PD50 (50% protection dose)
[22] = A9540, 480 h, C. albicans, mice, iv
[23] = A9540, in Mus musculus, iv, 480 h, read-out: S/T (No. of survivors/tested)
[24] = Candida albicans A9540, YMA pH 7.0, 28° C., 40 hours, read-out: MIC
[25] = Table 3, Candida albicans A9540, YMA, read-out: MIC Ca-4
[26] = Table 3, Trichophyton mentagrophytes #4329, YMA, read-out: MIC TM-4
[27] = Trichophyton mentagrophytes #4329, YMA pH 7.0, 28° C., 60 hours, read-out: MIC

Row | Structure (SMILES) | MIC [1, 16] | MIC [1, 17] | MIC [2, 18] | MIC [2, 19] | responders at 6.3 mg/kg [3, 20] | responders at 12.5 mg/kg [3, 20] | responders at 25 mg/kg [3, 20] | responders at 50 mg/kg [3, 20] | ED50 [3, 21] | MIC [4] | ED50 [5, 22] | MIC [6] | MIC [7] | MIC [8] | MIC [9] | MIC [10] | MIC [11, 24] | MIC [11, 25] | MIC [12] | MIC [13] | further results
1 | COc1cc(O)c2c(c1)C(=O)c1c(cc3c(c1O)-c1c(cc(C)c(C(=O)N[C@H](C)C(=O)O)c1O)[C@H](O[C@@H]1O[C@H](C)[C@H](NC(=N)N[N+](=O)[O-])[C@H](O[C@@H]4OC[C@@H](O)[C@H](O)[C@H]4O)[C@H]1O)[C@H]3O)C2=O [KHM-7, 4'-Nitroquanidinopradimicin C] | 1.6 µg/mL (≈ 1.75 µM) | 1.6 µg/mL (≈ 1.75 µM) | 3.1 µg/mL (≈ 3.39 µM) | 3.1 µg/mL (≈ 3.39 µM) | 20% | 40% | 0% | 20% | > 50 mg/kg | 6.3 µg/mL (≈ 6.89 µM) | 12 mg/kg | 3.1 µg/mL (≈ 3.39 µM) | 3.1 µg/mL (≈ 3.39 µM) | 12.5 µg/mL (≈ 13.7 µM) | 12.5 µg/mL (≈ 13.7 µM) | 3.1 µg/mL (≈ 3.39 µM) | 3.1 µg/mL (≈ 3.39 µM) | 3.1 µg/mL (≈ 3.39 µM) | 3.1 µg/mL (≈ 3.39 µM) | 1.6 µg/mL (≈ 1.75 µM) | ED50 ([3]; Table 3, Aspergillus fumigatus IAM 2034, iv, read-out: PD50 (mice) Af-3): > 50 mg/kg; responders at 6.3 mg/kg [5, 23]: 40%; responders at 12.5 mg/kg [5, 23]: 60%; responders at 25 mg/kg [5, 23]: 60%; responders at 50 mg/kg [5, 23]: 80%; solubility [14]: > 20000 µg/mL; MIC [15, 26]: 3.1 µg/mL (≈ 3.39 µM); MIC [15, 27]: 3.1 µg/mL (≈ 3.39 µM)
2 | CN[C@@H]1[C@H](O[C@@H]2OC[C@@H](O)[C@H](O)[C@H]2O)[C@@H](O)[C@H](O[C@H]2c3cc(C)c(C(=O)N[C@H](C)C(=O)O)c(O)c3-c3c(cc4c(c3O)C(=O)c3cc(OC)cc(O)c3C4=O)[C@@H]2O)O[C@@H]1C [Pradimicin A, reference compound] | 1.6 µg/mL (≈ 1.9 µM) | 1.6 µg/mL (≈ 1.9 µM) | 1.6 µg/mL (≈ 1.9 µM) | 0.8 µg/mL (≈ 0.951 µM) | 0% | 20% | 60% | 100% | 23 mg/kg | > 100 µg/mL | 10 mg/kg | 3.1 µg/mL (≈ 3.69 µM) | 1.6 µg/mL (≈ 1.9 µM) | > 100 µg/mL | > 100 µg/mL | 6.3 µg/mL (≈ 7.49 µM) | 12.5 µg/mL (≈ 14.9 µM) | 12.5 µg/mL (≈ 14.9 µM) | 6.3 µg/mL (≈ 7.49 µM) | 3.1 µg/mL (≈ 3.69 µM) | responders at 6.3 mg/kg ([5]; A9540, 480 h, C. albicans, mice, 6.3 mg/kg iv, 20th day post-infection, read-out: S/T (No. of survivors/tested) (converted)): 0%; responders at 12.5 mg/kg ([5]; A9540, 480 h, C. albicans, mice, 12.5 mg/kg iv, 20th day post-infection, read-out: S/T (No. of survivors/tested) (converted)): 80%; responders at 25 mg/kg ([5]; A9540, 480 h, C. albicans, mice, 25 mg/kg iv, 20th day post-infection, read-out: S/T (No. of survivors/tested) (converted)): 100%; responders at 50 mg/kg ([5]; A9540, 480 h, C. albicans, mice, 50 mg/kg iv, 20th day post-infection, read-out: S/T (No. of survivors/tested) (converted)): 100%; solubility [14]: 20 µg/mL (≈ 23.8 µM); MIC [15, 26]: 3.1 µg/mL (≈ 3.69 µM); MIC [15, 27]: 3.1 µg/mL (≈ 3.69 µM)
